Where a name gives a salt, the structure may show the parent alone.
Tested on: not listed separately
Experiment: in vitro
Conditions: human

Compound | viability at 72 h | viability at 72 h, 5 µM | viability
NCCC(O)(P(=O)(O)O)P(=O)(O)O [Pamidronate disodium, reference compound] | 80.8% | 80.8 ± 1.4% | –
C[C@@H](Oc1cc(-c2cnn(C3CCNCC3)c2)cnc1N)c1c(Cl)ccc(F)c1Cl [Crizotinib (PF-02341066)] | – | – | 43.6%
OCCn1cc(-c2cnc3nnn(Cc4ccc5ncccc5c4)c3n2)cn1 [PF-04217903] | 65% | – | –
Nc1nc2[nH]cc(CCc3ccc(C(=O)N[C@@H](CCC(=O)O)C(=O)O)cc3)c2c(=O)[nH]1 [Pemetrexed disodium, reference compound] | – | 84.6 ± 1.5% | –

Same assay, conditions: human, Host viability (%) Mean ± SD

Compound | viability at 72 h, 5 µM
Nc1ccccc1NC(=O)c1ccc(CNc2nccc(-c3cccnc3)n2)cc1 [Mocetinostat, reference compound] | 80.2 ± 3.8%
O=C(C[S+]([O-])Cc1ccco1)NC/C=C\COc1cc(CN2CCCCC2)ccn1 (stereo not shown) [Lafutidine, reference compound] | 92.7 ± 5.6%
CN1CCC(=C2c3ccccc3C=Cc3ccccc32)CC1 [Cyproheptadine HCl, reference compound] | 90.6 ± 1.2%

Same assay, conditions: human, Host viability (%) mean

Compound | viability at 72 h
Nc1ccccc1NC(=O)c1ccc(CNc2nccc(-c3cccnc3)n2)cc1 [Mocetinostat (MGCD0103)] | 80.2%
O=C(C[S+]([O-])Cc1ccco1)NC/C=C\COc1cc(CN2CCCCC2)ccn1 (stereo not shown) [Lafutidine, reference compound] | 92.7%

Same assay, conditions: human, uninfected human foreskin fibroblasts (HFFs)

Compound | viability at 72 h
O=C1CCC[C@@H]2[C@@H]3CCCN4CCC[C@H](CN12)[C@@H]34 [Matrine ((+)-Matrine)] | 19.6%

Same assay, conditions: human, uninfected human foreskin fibroblasts (HFFs), Host viability (%) mean, preliminary screen, mean

Compound | viability at 72 h
CN1CCC(=C2c3ccccc3C=Cc3ccccc32)CC1 [Cyproheptadine HCl (Periactin)] | 90.6%

Tested on: Toxoplasma gondii RH-2F tachyzoites
Experiment: microbe, parasite or virus in culture
Conditions: 72 h, read-out: Parasite inhibition (%) Mean ± SD

Compound | inhibition at 5 µM
NCCC(O)(P(=O)(O)O)P(=O)(O)O [Pamidronate disodium, reference compound] | 79.6 ± 1.5%
Nc1ccccc1NC(=O)c1ccc(CNc2nccc(-c3cccnc3)n2)cc1 [Mocetinostat, reference compound] | 86.5 ± 3.1%
O=C(C[S+]([O-])Cc1ccco1)NC/C=C\COc1cc(CN2CCCCC2)ccn1 (stereo not shown) [Lafutidine, reference compound] | 70.6 ± 2.5%

Same assay, conditions: 72 h, read-out: Parasite inhibition (%) mean

Compound | inhibition of growth at 5 µM
OCCn1cc(-c2cnc3nnn(Cc4ccc5ncccc5c4)c3n2)cn1 [PF-04217903] | 88.6%
C#Cc1cccc(Nc2ncnc3cc(OC)c(OCCCCCCC(=O)NO)cc23)c1 [CUDC-101] | 46.2%
C=CC(=O)Nc1cccc(Sc2nc(Nc3ccc(N4CCN(C)CC4)cc3)ncc2Cl)c1 [WZ8040] | 2.8%
c1ccc([C@H]2CN3CCSC3=N2)cc1 [Levamisole Hydrochloride (Ergamisol)] | 63.9%
CNC[C@H](O)c1ccc(O)c(O)c1 [L-Adrenaline (Epinephrine)] | 0.4%

Same assay, conditions: 72 h, read-out: Parasite inhibition (%) mean, preliminary screen of compound library, mean

Compound | inhibition of growth at 5 µM
O=C1CCC[C@@H]2[C@@H]3CCCN4CCC[C@H](CN12)[C@@H]34 [Matrine ((+)-Matrine)] | 78.7%
CC1CCN(CC[C@H]2CCCN2S(=O)(=O)c2cccc(O)c2)CC1 [SB-269970 HCl] | -10.7%
CC(C)(CO)c1cc2cc(NC(=O)C3(c4ccc5c(c4)OC(F)(F)O5)CC3)c(F)cc2n1C[C@@H](O)CO [VX-661] | 0.6%
CC(C)c1nc(N(C)S(C)(=O)=O)nc(-c2ccc(F)cc2)c1/C=C/[C@@H](O)C[C@@H](O)CC(=O)O [Rosuvastatin calcium (Crestor)] | -0.1%
CCc1nc(-c2cccc(C)c2)c(-c2ccnc(NC(=O)c3ccccc3)c2)s1 [TAK 715] | 22.5%
CN1CCN2c3ncccc3Cc3ccccc3C2C1 (stereo not shown) [Mirtazapine (Remeron, Avanza)] | 33.1%
N[C@@H](Cc1ccc(O)c(O)c1)C(=O)O [Levodopa (Sinemet)] | 12.1%
O=C(O)c1ccc(-n2nc(-c3ccccc3O)nc2-c2ccccc2O)cc1 [Deferasirox (Exjade)] | -0.6%
CC=CC1=C(C(=O)O)N2C(=O)[C@@H](NC(=O)[C@H](N)c3ccc(O)cc3)[C@H]2SC1 (mixture of isomers) [Cefprozil hydrate (Cefzil)] | 12.3%
O=C(O)C(O)Cc1ccc(O)c(O)c1 (stereo not shown) [Sodium Danshensu] | 2.2%
N=C(N)c1ccc(OCCCCCOc2ccc(C(=N)N)cc2)cc1 [Pentamidine HCl] | 23.6%
NC(=O)Cc1cccc(C(=O)c2ccccc2)c1N [Nepafenac] | -10.3%
CC(C)C(=O)Oc1ccc(CO)cc1[C@H](CCN(C(C)C)C(C)C)c1ccccc1 [Fesoterodine fumarate (Toviaz)] | 0.2%
O=C(O)[C@]1(Cc2cccc(Nc3nccs3)n2)CC[C@@H](Oc2cccc(Cl)c2F)CC1 [MK-5108 (VX-689)] | 60.4%
Cc1cccc(-c2nn3c(c2-c2ccnc4ccc(C(N)=O)cc24)CCC3)n1 [LY2157299] | 5.2%
Cc1ccc(O)c([C@H](CCN(C(C)C)C(C)C)c2ccccc2)c1 [Tolterodine tartrate (Detrol LA)] | 2.2%
O=C(O)c1ccc2c(c1)nc(Nc1cccc(Cl)c1)c1ccncc12 [CX-4945 (Silmitasertib)] | 1.5%
CN1C2=CC(=O)/C(=N\NC(N)=O)C=C2CC1S(=O)(=O)O (stereo not shown) [Carbazochrome sodium sulfonate] | 1.2%
CC[C@@H]1/C=C(\C)C[C@H](C)C[C@H](OC)[C@H]2O[C@@](O)(C(=O)C(=O)N3CCCC[C@H]3C(=O)O[C@H](/C(C)=C/[C@@H]3CC[C@H](Cl)[C@H](OC)C3)[C@H](C)[C@@H](O)CC1=O)[C@H](C)C[C@@H]2OC [Pimecrolimus] | -12.9%
Cc1nc(NC(=O)N2CCC[C@H]2C(N)=O)sc1-c1ccnc(C(C)(C)C(F)(F)F)c1 [BYL719] | 47.5%
CNC(=O)c1ccc(N2C(=S)N(c3cnc(C#N)c(C(F)(F)F)c3)C(=O)C23CCC3)cc1F [ARN-509] | 28.7%
N#C[C@@H]1CCCN1C(=O)CNC12CC3CC(CC(O)(C3)C1)C2 [Vildagliptin (LAF-237)] | -11.7%
C[C@]12C=CC(=O)C=C1CC[C@@H]1[C@H]2C(=O)C[C@@]2(C)[C@H]1CC[C@@]2(O)C(=O)CO [Prednisone (Adasone)] | 33.8%
CC(C)(O)[C@H]1CC[C@@](C)([C@@H]2[C@@H](O)C[C@@]3(C)[C@@H]4C[C@H](O[C@@H]5O[C@H](CO)[C@@H](O)[C@H](O)[C@@H]5O)[C@H]5C(C)(C)[C@@H](O[C@@H]6OC[C@@H](O)[C@H](O)[C@H]6O)CC[C@@]56C[C@]46CC[C@]23C)O1 [Astragaloside A] | 15.5%
Cc1cc(SCc2sc(-c3ccc(C(F)(F)F)c(F)c3)nc2C)ccc1OCC(=O)O [GW0742] | 23.4%
CC1(C)CC(=O)c2c(C(F)(F)F)nn(-c3ccc(C(N)=O)c(N[C@H]4CC[C@H](O)CC4)c3)c2C1 [SNX-2112] | 9.9%
Cc1nc(NC(=O)N2CCC[C@H]2C(N)=O)sc1-c1csc(C(C)(C)C)n1 [A66] | 0.9%
COC(=O)C1=C(C)NC(C)=C(C(=O)OCCN2CCN(C(c3ccccc3)c3ccccc3)CC2)C1c1cccc([N+](=O)[O-])c1 (stereo not shown) [Manidipine (Manyper)] | 1.1%
CC1=C(C(=O)OC(C)C)C(c2cccc([N+](=O)[O-])c2)C(C(=O)OC2CN(C(c3ccccc3)c3ccccc3)C2)=C(N)N1 (stereo not shown) [Azelnidipine] | 15.7%

Same assay, conditions: 72 h, read-out: Parasite inhibition (%) mean, preliminary screen, mean

Compound | inhibition of growth at 5 µM
C[C@@H](Oc1cc(-c2cnn(C3CCNCC3)c2)cnc1N)c1c(Cl)ccc(F)c1Cl [Crizotinib (PF-02341066)] | 86.8%
Nc1ccccc1NC(=O)c1ccc(CNc2nccc(-c3cccnc3)n2)cc1 [Mocetinostat (MGCD0103)] | 86.5%
Cc1cn(-c2cc(NC(=O)c3ccc(C)c(Nc4nccc(-c5cccnc5)n4)c3)cc(C(F)(F)F)c2)cn1 [Nilotinib (AMN-107)] | 0.1%
Cn1c(=O)n(-c2ccc(C(C)(C)C#N)cc2)c2c3cc(-c4cnc5ccccc5c4)ccc3ncc21 [BEZ235 (NVP-BEZ235)] | 5.6%
Clc1ccccc1C(c1ccccc1)(c1ccccc1)n1cccn1 [TRAM-34] | 2.6%
CN(C)CCc1c[nH]c2ccc(CS(=O)(=O)N3CCCC3)cc12 [Almotriptan malate (Axert)] | 2%
C[C@H](Cc1cc2c(c(C(N)=O)c1)N(CCCO)CC2)NCCOc1ccccc1OCC(F)(F)F [Silodosin (Rapaflo)] | 47.9%
Nc1ncnc2c1c(-c1cccc(OCc3ccccc3)c1)cn2C1CC(CN2CCCC2)C1 (stereo in doubt) [NVP-ADW742] | 48.9%
O=C(O)[C@H](CC(=O)N1C[C@H]2CCCC[C@H]2C1)Cc1ccccc1 [Mitiglinide calcium] | 0.9%
O=C(NOCC(O)CO)c1cc(Br)c(F)c(F)c1Nc1ccc(I)cc1F (stereo not shown) [PD318088] | -12.9%
O[C@H](CNC[C@@H](O)[C@H]1CCc2cc(F)ccc2O1)[C@@H]1CCc2cc(F)ccc2O1 [Nebivolol (Bystolic)] | 68.9%
CN(C)C/C=C/C(=O)Nc1cc2c(Nc3ccc(F)c(Cl)c3)ncnc2cc1O[C@H]1CCOC1 [Afatinib (BIBW2992)] | 42.8%
COc1ccc2cccc(CCNC(C)=O)c2c1 [Agomelatine] | 64.2%
Cc1ccc(C(=O)Nc2ccc(CN3CCN(C)CC3)c(C(F)(F)F)c2)cc1C#Cc1cnc2cccnn12 [Ponatinib (AP24534)] | 49.3%
CCC(COC(=O)c1cc(OC)c(OC)c(OC)c1)(c1ccccc1)N(C)C (stereo not shown) [Trimebutine] | 1.4%
O=C(O)Cn1nnc(-c2cc(N3CCC(Oc4cc(F)ccc4Br)CC3)no2)n1 [MK-8245] | 14.5%
O=c1[nH]cnc2[nH]ncc12 [Allopurinol Sodium (Aloprim)] | -0.7%
C/C(=C\C(=O)Nc1ccccc1C(=O)O)c1ccc2ccccc2c1 [BIBR 1532] | 0.4%
C[C@H](N[C@@H](CCc1ccccc1)C(=O)O)C(=O)N1CCC[C@H]1C(=O)O [Enalaprilat dihydrate] | 33.9%
CC(=O)Nc1ccc(OC[C@](C)(O)C(=O)Nc2ccc([N+](=O)[O-])c(C(F)(F)F)c2)cc1 [Andarine (GTX-007)] | -18.7%
Cc1ccc(-n2nc(C(C)(C)C)cc2NC(=O)Nc2ccc(OCCN3CCOCC3)c3ccccc23)cc1 [BIRB 796 (Doramapimod)] | 8.9%
CCC(=O)O[C@@H](OP(=O)(CCCCc1ccccc1)CC(=O)N1C[C@H](C2CCCCC2)C[C@H]1C(=O)O)C(C)C (stereo partly shown) [Fosinopril sodium (Monopril)] | 21.3%
CN(C)/N=N/c1[nH]cnc1C(N)=O [Dacarbazine (DTIC-Dome)] | 5.8%
CC(C)OC(=O)OCOP(=O)(CO[C@H](C)Cn1cnc2c(N)ncnc21)OCOC(=O)OC(C)C [Tenofovir Disoproxil Fumarate] | 0.5%
